# Measurements published in patent US20260240799A1, “TREATMENT OF PRIMARY BILIARY CHOLANGITIS” (Genfit, priority 2023, published 2026).
# Entries after “also recorded” stand apart in the source; their conditions may differ.
# Columns and labels:
# [1] = tested on: participants with primary biliary cholangitis; experiment: PROMIS Fatigue SF 7a T-score in phase 3 trial NCT04526665 (ELATIVE); assay type: in vivo, human; design: key to PROMIS Fatigue T-score, observed mean / PROMIS Fatigue T-score, observed median: standardized T-score, mean 50, SD 10; higher = more fatigue; details: for Change from baseline in PROMIS Fatigue T-score, mean / Change from baseline in PROMIS Fatigue T-score, median / Change from baseline in PROMIS Fatigue T-score, LS means (MMRM) / Change from baseline in PROMIS Fatigue T-score, LS means difference with placebo (MMRM) / PROMIS Fatigue T-score, observed mean / PROMIS Fatigue T-score, observed median: 80 mg once daily
# Source text: The patient's fatigue can be measured using the PROMIS Short Form—Fatigue 7a questionnaire (V1.0) to assess change from baseline in fatigue during treatment. The PROMIS Fatigue item banks assess a range of self-reported symptoms over the past seven days, from mild subjective feelings of tiredness to an overwhelming, debilitating, and sustained sense of exhaustion that likely decreases one's ability to execute daily activities and function normally in family or social roles. Fatigue is divided into the experience of fatigue (frequency, duration, and intensity) and the impact of fatigue on physical, mental, and social activities. PROMIS instruments are scored using item-level calibrations. The final score is represented by the T-score, a standardized score with a mean of 50 and a standard deviation (SD) of 10. A 1-point decrease of the PROMIS Fatigue T-score represents a meaningful change in fatigue. This improvement corresponds to changes in alertness and well-being that are easily noticeable. Likewise, a noticeable worsening corresponds to a 1-point increase of the PROMIS Fatigue T-score (Schattenberg et al.; “Evaluating Pruritus and Fatigue in Patients with Treatment-Refractory Primary Biliary Cholangitis” EASL 21-24 Jun. 2023).
# Participants aged 18 to 75 years, who had been diagnosed with primary biliary cholangitis according to established criteria, were recruited at 82 sites in 14 countries. Inclusion criteria were an alkaline phosphatase level of ≥1.67 times the upper limit of the normal range (ULN), and a total bilirubin level of ≤2 times the ULN. Prior to screening, eligible participants had received 13 to 15 mg/kg ursodeoxycholic acid treatment per day for at least 12 months (stable dose for at least 3 months) or were intolerant to ursodeoxycholic acid (no treatment for at least 3 months).
# In this double-blind, placebo-controlled, phase 3 trial, participants with an inadequate response or intolerance to ursodeoxycholic acid were randomized 2:1 to receive elafibranor 80 mg or placebo once daily. Participants receiving stable doses of ursodeoxycholic acid for at least three months prior to enrollment continued their treatment regimen throughout the trial. The overall double-blind treatment period consisted of two parts. In part one, all randomized patients received a minimum of 52 weeks of double-blind treatment. In part two, participants continued to receive double-blind treatment beyond Week 52 in a variable treatment period until all participants had completed their Week 52 assessment or until a maximum treatment duration of 104 weeks, whichever came first. The first database lock occurred after the last participant completed its Week 52 visit in the double-blind period. At the end of the double-blind period (lasting 52 to 104 weeks), participants could optionally enter an open-label extension where they would receive elafibranor 80 mg for up to five years.
# From September 2020 through May 2023, 161 participants were randomly assigned to receive elafibranor 80 mg (108 participants) or placebo (53 participants); these participants made up the intent-to-treat (ITT) and safety populations. The pruritus intent-to-treat population included 66 participants with moderate-to-severe pruritus (44 receiving elafibranor, 22 receiving placebo).
# The Patient Reported Outcome Measurement Information System (PROMIS®) is the product of a massive effort begun in 2004 and based on modern measurement theory, to address the need to develop precise, consensus measures of health outcome, including fatigue, suitable for use across chronic diseases in particular PBC. The PROMIS Fatigue Short Form 7a (PROMIS Fatigue SF 7a) is a seven-item questionnaire derived from the 95-item PROMIS Fatigue item bank. […]
# [2] = tested on: serum alkaline phosphatase (ALP); experiment: serum ALP change in phase 3 study on PBC (ELATIVE); assay type: in vivo, human; details: elafibranor 80 mg treatment group; PBC (placebo 3.2%)
# patients with PBC [3] = experiment: safety and tolerability in PBC patients; assay type: in vivo, human
# patients with PBC [4] = details: cited from earlier work
# [5] = Week 4, Pruritus ITT analysis set
# [6] = Week 13, Pruritus ITT analysis set
# [7] = Week 26, Pruritus ITT analysis set
# [8] = Week 39, Pruritus ITT analysis set
# [9] = Week 52, Pruritus ITT analysis set
smiles,measurement,setting,value
"CSc1ccc(C(=O)C=Cc2cc(C)c(OC(C)(C)C(=O)O)c(C)c2)cc1 [Elafibranor, 2-(2,6-dimethyl-4-{3-[4-(methylsulfanyl)phenyl]-3-oxopropen-1-yl}phenoxy)-2-methylpropanoic acid]","effect on fatigue (PROMIS Fatigue SF 7a) compared to placebo, in words","[1]; 80 mg daily, participants with PBC",significative reduction; also recorded: improvement in fatigue
same,"Change from baseline in PROMIS Fatigue T-score, mean","[1]; Week 4, ITT analysis set",−1.66
same,"Change from baseline in PROMIS Fatigue T-score, median","[1]; Week 4, ITT analysis set",−1.60
same,"Change from baseline in PROMIS Fatigue T-score, mean",[1]; [5],−2.86
same,"Change from baseline in PROMIS Fatigue T-score, median",[1]; [5],−2.70
same,"Change from baseline in PROMIS Fatigue T-score, LS means (MMRM)","[1]; Week 13, ITT analysis set",−2.16
same,"Change from baseline in PROMIS Fatigue T-score, LS means difference with placebo (MMRM)","[1]; Week 13, ITT analysis set",−2.11
same,"Change from baseline in PROMIS Fatigue T-score, mean","[1]; Week 13, ITT analysis set",−2.24
same,"Change from baseline in PROMIS Fatigue T-score, median","[1]; Week 13, ITT analysis set",−1.50
same,"PROMIS Fatigue T-score, observed mean","[1]; Week 13, ITT analysis set",53.63
same,"PROMIS Fatigue T-score, observed median","[1]; Week 13, ITT analysis set",52.95
same,"Change from baseline in PROMIS Fatigue T-score, LS means (MMRM)",[1]; [6],−3.50
same,"Change from baseline in PROMIS Fatigue T-score, LS means difference with placebo (MMRM)",[1]; [6],−3.15
same,"Change from baseline in PROMIS Fatigue T-score, mean",[1]; [6],−3.54
same,"PROMIS Fatigue T-score, observed mean",[1]; [6],57.49
same,"PROMIS Fatigue T-score, observed median",[1]; [6],59.20
same,"Change from baseline in PROMIS Fatigue T-score, mean","[1]; Week 26, ITT analysis set",−2.23
same,"Change from baseline in PROMIS Fatigue T-score, median","[1]; Week 26, ITT analysis set",−1.55
same,"Change from baseline in PROMIS Fatigue T-score, mean",[1]; [7],−3.50
same,"Change from baseline in PROMIS Fatigue T-score, median",[1]; [7],−3.20
same,"Change from baseline in PROMIS Fatigue T-score, mean","[1]; Week 39, ITT analysis set",−2.41
same,"Change from baseline in PROMIS Fatigue T-score, median","[1]; Week 39, ITT analysis set",−1.45
same,"Change from baseline in PROMIS Fatigue T-score, mean",[1]; [8],−4.54
same,"Change from baseline in PROMIS Fatigue T-score, median",[1]; [8],−4.05
same,"Change from baseline in PROMIS Fatigue T-score, LS means (MMRM)","[1]; Week 52, ITT analysis set",−2.45
same,"Change from baseline in PROMIS Fatigue T-score, LS means difference with placebo (MMRM)","[1]; Week 52, ITT analysis set",−1.23
same,"Change from baseline in PROMIS Fatigue T-score, mean","[1]; Week 52, ITT analysis set",−2.75
same,"Change from baseline in PROMIS Fatigue T-score, median","[1]; Week 52, ITT analysis set",−2.80
same,"PROMIS Fatigue T-score, observed mean","[1]; Week 52, ITT analysis set",53.70
same,"PROMIS Fatigue T-score, observed median","[1]; Week 52, ITT analysis set",53.70
same,"Change from baseline in PROMIS Fatigue T-score, LS means (MMRM)",[1]; [9],−4.53
same,"Change from baseline in PROMIS Fatigue T-score, LS means difference with placebo (MMRM)",[1]; [9],−3.77
same,"Change from baseline in PROMIS Fatigue T-score, mean",[1]; [9],−4.58
same,"Change from baseline in PROMIS Fatigue T-score, median",[1]; [9],−4.20
same,"PROMIS Fatigue T-score, observed mean",[1]; [9],56.23
same,"PROMIS Fatigue T-score, observed median",[1]; [9],56.45
same,mean relative change from baseline to endpoint in serum ALP,[2],−48.3%
same,safety and tolerability,patients with PBC [3],safe and well-tolerated
"CC[C@H]1[C@@H](O)[C@@H]2[C@H](CC[C@]3(C)[C@@H]([C@H](C)CCC(=O)O)CC[C@@H]23)[C@@]2(C)CC[C@@H](O)C[C@@H]12 [OCA, obeticholic acid]",fatigue as side effect of treatment,patients with PBC [4],one of the most common side effects
